The values that follow come from PubChem BioAssay (NCI).

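Assay format: 96-well plates, 48-hour exposure. At the GI50, growth is halved. TGI denotes the concentration required for complete inhibition of growth.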

Test systems include M19-MEL melanoma; DMS 273 small cell lung; XF 498 CNS; HOP-18 NSCLC; KM20L2 colon; DLD-1 colon; DMS 114 small cell lung; SNB-78 CNS; RXF-631 renal.
Common to all, as to test: NCI-60 cell line screen, 48 h

Take `COC(=O)N/N=C/c1oc(-c2cccc([N+](=O)[O-])c2)c(-c2cccc([N+](=O)[O-])c2)c1[N+](=O)[O-]`: the TGI with M19-MEL melanoma, in the assay with DMS 273 small cell lung, in the assay with XF 498 CNS, in the assay on HOP-18 NSCLC, with KM20L2 colon and in the assay with DLD-1 colon was greater than 100 µM throughout.

Turning to `COC(=O)c1c(C(=O)OC)c2cc(C(=O)c3ccccc3)ccn2c1Cl`, the TGI in the assay with M19-MEL melanoma was greater than 100 µM; in the assay with DMS 114 small cell lung, 89.1 µM; with DMS 273 small cell lung, 90.4 µM; in the assay on XF 498 CNS, 66.6 µM; in the assay on KM20L2 colon it was greater than 100 µM; in the assay with SNB-78 CNS it was greater than 100 µM.

Regarding `COc1ccc(C2C(Cl)C(=O)N2NC(=O)Cc2ccccc2)cc1` (stereo not drawn), the TGI with M19-MEL melanoma, with DMS 273 small cell lung, in the assay with XF 498 CNS, with HOP-18 NSCLC, with KM20L2 colon and with SNB-78 CNS was greater than 100 µM in each case. Further, the TGI with DLD-1 colon was greater than 100 µM.

With `[N-]=[N+]=NC1C(Br)C(=O)NC(=O)N1[C@H]1C[C@H](O)[C@@H](CO)O1` (stereo partly drawn), the GI50 was 91.5 µM in the assay on M19-MEL melanoma and 90.9 µM in the assay on DMS 114 small cell lung. In addition, the TGI in the assay on M19-MEL melanoma, in the assay on DMS 114 small cell lung, in the assay on DMS 273 small cell lung, in the assay with XF 498 CNS, with KM20L2 colon and with SNB-78 CNS was greater than 100 µM throughout. The compound also registered a TGI in the assay with DLD-1 colon greater than 100 µM.

As to `Cc1cc2c(s1)C(=O)c1sccc1C2=O`, the TGI with DMS 114 small cell lung was found to be 0.6 µM; in the assay with DMS 273 small cell lung, 2.62 µM; with XF 498 CNS it was 2.92 µM; in the assay on HOP-18 NSCLC, 2.81 µM; with KM20L2 colon, 4.75 µM; in the assay with DLD-1 colon, 3.36 µM.

`COC[n+]1cc2cc(OC)c(OC)cc2c2ccc3cc(OC)c(OC)cc3c21`: the TGI with M19-MEL melanoma, in the assay with DMS 114 small cell lung, with RXF-631 renal, in the assay with HOP-18 NSCLC, in the assay with KM20L2 colon and in the assay on SNB-78 CNS was greater than 100 µM each time. This compound also gave a TGI in the assay with DLD-1 colon greater than 100 µM.

Turning to `CCN(CC)Cc1cc(Nc2c3ccccc3nc3c2[nH]c2ccccc23)ccc1O`, the TGI in the assay on M19-MEL melanoma came to 3.04 µM; with DMS 114 small cell lung, 3.14 µM; with DMS 273 small cell lung, 1.84 µM; in the assay on RXF-631 renal it was 4.37 µM; in the assay with XF 498 CNS, 3.18 µM; in the assay with HOP-18 NSCLC it was 5.39 µM. Also, the TGI in the assay with KM20L2 colon was 2.41 µM; in the assay on SNB-78 CNS it was 4.87 µM; in the assay on DLD-1 colon it was 5.7 µM.

Consider `CCCCc1c2c(nc3c1CCC/C3=C\c1ccccc1)C(=O)C(CN(C)C)CC2` (stereo not drawn), for which the TGI with M19-MEL melanoma came to 32 µM; in the assay on DMS 114 small cell lung, 34.8 µM; with DMS 273 small cell lung, 41.1 µM; in the assay with XF 498 CNS, 28.2 µM; in the assay with HOP-18 NSCLC, 38.5 µM; with KM20L2 colon, 35.6 µM. The values for the TGI in the assay with SNB-78 CNS and in the assay on DLD-1 colon were 45.6 µM and 33.4 µM, respectively.

On to `N#CC12C3C4CC5C6C4C1C6C(O)(C53)N2Cc1ccccc1` (stereo not drawn), for which the TGI in the assay with DMS 114 small cell lung, in the assay on DMS 273 small cell lung, in the assay on RXF-631 renal, with XF 498 CNS, in the assay on HOP-18 NSCLC and in the assay with KM20L2 colon was greater than 100 µM each time. For the same compound, the TGI in the assay on DLD-1 colon was greater than 100 µM.

`COc1cc2[nH]c(-c3cccc(N(C)C)c3)cc(=O)c2cc1OC`: the TGI with M19-MEL melanoma is greater than 100 µM; in the assay with DMS 114 small cell lung it was greater than 49.1 µM; in the assay with DMS 273 small cell lung it was greater than 100 µM; with XF 498 CNS it was greater than 100 µM; with HOP-18 NSCLC, 9.35 µM; with KM20L2 colon, 5.46 µM. The TGI in the assay with SNB-78 CNS and in the assay on DLD-1 colon was greater than 100 µM throughout.

As for `O=C(c1ccncc1)n1nc(-c2ccccc2)c(N=Nc2ccc([N+](=O)[O-])cc2)c1-c1ccccc1`, the TGI in the assay on M19-MEL melanoma was greater than 100 µM; in the assay on DMS 114 small cell lung it was greater than 100 µM; with DMS 273 small cell lung it was greater than 100 µM; in the assay with XF 498 CNS, greater than 100 µM; in the assay with SNB-78 CNS it was 28 µM; in the assay on DLD-1 colon it was greater than 100 µM.

In the case of `CC1=NN(C(=O)Cc2ccccc2)C(=O)/C1=C\C=C\c1ccccc1`, the TGI with DMS 273 small cell lung, in the assay with XF 498 CNS, in the assay on HOP-18 NSCLC, with SNB-78 CNS and in the assay on DLD-1 colon was greater than 100 µM throughout.

Consider `Cc1cc2oc(=O)[nH]c(=S)c2c(C)c1C`, for which the TGI in the assay with M19-MEL melanoma, in the assay with DMS 114 small cell lung, with DMS 273 small cell lung, in the assay with XF 498 CNS, with HOP-18 NSCLC and in the assay with KM20L2 colon was greater than 100 µM throughout.

As to `CCOC(=O)CC[C@@H](NC(=O)c1ccc(N[C@@H]2c3cc4c(cc3C(c3cc(OC)c(O)c(OC)c3)C3C(=O)OC[C@@H]32)OCO4)cc1)C(=O)OCC` (stereo partly drawn), the TGI in the assay with DMS 273 small cell lung was 0.114 µM; in the assay on HOP-18 NSCLC it was greater than 10 µM; with KM20L2 colon, 0.272 µM; in the assay with SNB-78 CNS it was greater than 10 µM; in the assay with DLD-1 colon it was 0.406 µM.

With `CC(C)(C)[C@H]1CO[C@]2(C)[C@@H]3C[C@@H]3C(=O)N12`, the TGI with M19-MEL melanoma, with DMS 114 small cell lung, in the assay on DMS 273 small cell lung, in the assay with RXF-631 renal, in the assay on XF 498 CNS and in the assay with KM20L2 colon was greater than 100 µM each time. For the same compound, the TGI in the assay with SNB-78 CNS and with DLD-1 colon was greater than 100 µM in each case.
